Type in all cases: in vivo
Assay [1] concerns Lolium rigidum (LOLRI). The assay can be described thus: Herbicidal pre-emergence action, 1280 g/ha (Table A5). Conditions: visual grading after ca. 3 weeks vs untreated controls. In short, it runs like this: (§1)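 Weed seeds sown in sandy loam pots and covered with soil; compounds formulated as WP or EC applied to the soil surface in water with 0.5% additive at 600 L water/ha. Pots kept in a greenhouse under optimum growth conditions; damage visually graded after ca. 3 weeks versus untreated controls (0% = as control, 100% = plants dead).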

In assay [2] the test system is Matricaria inodora (MATIN). Description: Herbicidal pre-emergence action, 1280 g/ha (Table A6). To be noted: visual grading after ca. 3 weeks vs untreated controls. In short, it runs like this: as §1
Assay [3] concerns Stellaria media (STEME). Description: Herbicidal pre-emergence action, 1280 g/ha (Table A9). Conditions: visual grading after ca. 3 weeks vs untreated controls. In outline: as §1
For assay [4], the system named is Abutilon theophrasti (ABUTH). Description: Herbicidal post-emergence action, 1280 g/ha (Table B1). To be noted: visual assessment after ca. 3 weeks vs untreated controls. In outline: (§2)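 Foliar application to single-leaf weeds in sandy loam; percent kill judged visually ca. 3 weeks later relative to untreated plants.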
For assay [5], the system named is Kochia scoparia (KCHSC). The assay can be described thus: Herbicidal post-emergence action, 1280 g/ha (Table B4). To be noted: visual assessment after ca. 3 weeks vs untreated controls. In short, it runs like this: as §2
Assay [6] deals with Lolium rigidum (LOLRI). Description: Herbicidal post-emergence action, 1280 g/ha (Table B5). To be noted: visual assessment after ca. 3 weeks vs untreated controls. The text has this:
(§3) Seeds of mono- and dicotyledonous weed plants were sown in plastic pots (double sowings with one species of mono- and one species of dicotyledonous weed plants per pot), in sandy loam, covered with soil and grown under controlled growth conditions. 2 to 3 weeks after sowing, the test plants were sprayed in the single-leaf stage. The compounds according to the invention, formulated in the form of wettable powders (WP) or as emulsifiable concentrates (EC), were sprayed onto the green plant parts as an aqueous suspension or as an emulsion, with the addition of 0.5% of an additive, at an application rate of 600 litres of water per hectare (converted). The test plants were placed in the greenhouse for ca. 3 weeks under optimum growth conditions, and then the effect of the preparations was assessed visually in comparison with untreated controls (herbicidal effect in percent (%): 100% effect=plants have died, 0% effect=as control plants). Tables B1 to B11 below, show the effects of selected compounds of the general formula (I) according to Table 1 on various harmful plants using an application rate corresponding to 1280 g/ha obtained by the experimental procedure mentioned above.

The subject of assay [7] is Matricaria inodora (MATIN). Description: Herbicidal post-emergence action, 1280 g/ha (Table B6). Conditions: visual assessment after ca. 3 weeks vs untreated controls. In short, it runs like this: as §2
The test system of assay [8] is Stellaria media (STEME). Description: Herbicidal post-emergence action, 1280 g/ha (Table B9). Conditions: visual assessment after ca. 3 weeks vs untreated controls. In short, it runs like this: as §2
For assay [9], the system named is Veronica persica (VERPE). Description: Herbicidal post-emergence action, 1280 g/ha, VERPE. Conditions: visual grading vs untreated controls. In outline: (§4)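 Visual rating ~3 weeks after treatment: 0% equals untreated control, 100% means plants died. Treatment was a 1280 g/ha foliar spray (600 L water/ha, 0.5% additive, WP or EC formulation) applied to single-leaf-stage plants grown 2–3 weeks in sandy loam under controlled conditions.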

Assay [10] deals with Amaranthus retroflexus (AMARE). Description: Herbicidal post-emergence action, 1280 g/ha, AMARE. Conditions: visual grading vs untreated controls. In short, it runs like this: as §4
The subject of assay [11] is Abutilon theophrasti (ABUTH). The assay can be described thus: Herbicidal post-emergence action, 320 g/ha, ABUTH. Conditions: visual grading after ca. 3 weeks. In short, it runs like this:
(§5)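 Weeds were sown in sandy loam pots and sprayed post-emergence at the single-leaf stage, 2 to 3 weeks after sowing, with WP or EC formulations in water plus 0.5% additive at 600 L/ha. Visual % injury versus untreated controls was scored after ca. 3 weeks in the greenhouse.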

For assay [12], the system named is Lolium rigidum (LOLRI). Description: Herbicidal post-emergence action, 320 g/ha, LOLRI. To be noted: visual grading after ca. 3 weeks.
Text: as §3, with “plants).” for “plants). Tables B1 to B11 below, show the effects of selected compounds of the general formula (I) according to Table 1 on various harmful plants using an application rate corresponding to 1280 g/ha obtained by the experimental procedure mentioned above.”
(§6) Tables D1 to D8 below, show the effects of selected compounds of the general formula (I) according to Table 1 on various harmful plants using an application rate corresponding to 320 g/ha obtained by the experimental procedure mentioned above.

Assay [13] deals with Matricaria inodora (MATIN). The assay can be described thus: Herbicidal post-emergence action, 320 g/ha, MATIN. To be noted: visual grading after ca. 3 weeks.
Text: as §3, with “plants).” for “plants). Tables B1 to B11 below, show the effects of selected compounds of the general formula (I) according to Table 1 on various harmful plants using an application rate corresponding to 1280 g/ha obtained by the experimental procedure mentioned above.”
as §6

Assay [14] relates to Stellaria media (STEME). Description: Herbicidal post-emergence action, 320 g/ha, STEME. Conditions: visual grading after ca. 3 weeks. In outline:
as §5

For assay [15], the system named is Amaranthus retroflexus (AMARE). The assay can be described thus: Herbicidal post-emergence action, 320 g/ha, AMARE. Conditions: visual grading after ca. 3 weeks. In outline:
as §5

Assay [16] deals with Setaria viridis (SETVI). Description: Herbicidal pre-emergence action, 1280 g/ha (Table A8). Conditions: visual grading after ca. 3 weeks vs untreated controls. From the text: (§7) Seeds of mono- and dicotyledonous weed plants were sown in plastic pots (double sowings with one species of mono- and one species of dicotyledonous weed plants per pot), in sandy loam, and covered with soil. The compounds according to the invention, formulated in the form of wettable powders (WP) or as emulsifiable concentrates (EC), were applied to the surface of the covering soil as an aqueous suspension or as an emulsion, with the addition of 0.5% of an additive, at an application rate of 600 litres of water per hectare (converted). Following treatment, the pots were placed in a greenhouse and kept under optimum growth conditions for the test plants. The visual grading of the damage to the test plants was carried out after ca. 3 weeks in comparison to untreated controls (herbicidal effect in percent (%): 100% effect=plants have died, 0% effect=as control plants). Tables A1 to A11 below, show the effects of selected compounds of the general formula (I) according to Table 1 on various harmful plants and an application rate corresponding to 1280 g/ha obtained by the experimental procedure mentioned above.

For assay [17], the system named is Kochia scoparia (KCHSC). The assay can be described thus: Herbicidal pre-emergence action, 1280 g/ha (Table A4). Conditions: visual grading after ca. 3 weeks vs untreated controls. In short, it runs like this: as §1
For assay [18], the system named is Kochia scoparia (KCHSC). The assay can be described thus: Herbicidal post-emergence action, 320 g/ha, KCHSC. Conditions: visual grading after ca. 3 weeks.
Text: as §3, with “plants).” for “plants). Tables B1 to B11 below, show the effects of selected compounds of the general formula (I) according to Table 1 on various harmful plants using an application rate corresponding to 1280 g/ha obtained by the experimental procedure mentioned above.”
as §6

Assay [19] deals with Veronica persica (VERPE). Description: Herbicidal post-emergence action, 320 g/ha, VERPE. Conditions: visual grading after ca. 3 weeks.
Text: as §3, with “plants).” for “plants). Tables B1 to B11 below, show the effects of selected compounds of the general formula (I) according to Table 1 on various harmful plants using an application rate corresponding to 1280 g/ha obtained by the experimental procedure mentioned above.”
as §6

The test system of assay [20] is Abutilon theophrasti (ABUTH). The assay can be described thus: Herbicidal pre-emergence action, 1280 g/ha (Table A1). Conditions: visual grading after ca. 3 weeks vs untreated controls.
Text: as §7

The subject of assay [21] is Amaranthus retroflexus (AMARE). Description: Herbicidal pre-emergence action, 1280 g/ha (Table A11). To be noted: visual grading after ca. 3 weeks vs untreated controls. In outline: as §1
Assay [22] relates to Lolium rigidum (LOLRI). The assay can be described thus: Herbicidal pre-emergence action, 320 g/ha (Table C2). Conditions: visual grading after ca. 3 weeks vs untreated controls.
Text: as §7, with “Tables C1” for “Tables A1”, “to C6” for “to A11”, “plants using” for “plants and”, “to 320” for “to 1280”

Assay [23] has as its system Stellaria media (STEME). Description: Herbicidal pre-emergence action, 320 g/ha, STEME. Conditions: visual grading after ca. 3 weeks. In outline:
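Percent herbicidal effect, graded by eye about 3 weeks after treatment relative to untreated pots (0% matching controls, 100% dead plants). Application of 320 g/ha onto soil covering freshly sown seeds, as aqueous suspension or emulsion plus 0.5% additive at 600 L/ha; pots kept in greenhouse.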

In the case of `CC(=O)Oc1c(C)nn(C)c(=O)c1Oc1ccccc1OC(F)F` [Example I-081], the “herbicidal effect LOLRI” value in assay [1], in assay [6] and in assay [12] was 90% each time. Further, the “herbicidal effect MATIN” value in assay [2] is recorded as 90%; in assay [7] it was 100%; in assay [13], 90%. For the same compound, the “herbicidal effect STEME” value in [3], in assay [8] and in assay [14] was 90% in each case. The “herbicidal effect ABUTH” value in [4] is recorded as 100%; in [11], 90%. Besides, the “herbicidal effect KCHSC” value in [5] was found to be 100%. In [9], the “herbicidal effect VERPE” value is on record as 100%. Also, the “herbicidal effect AMARE” value in [10] was found to be 100%; in [15], 90%.
For the compound `CCOC(=O)Oc1c(C)nn(C)c(=O)c1Oc1ccccc1C(F)(F)F` [Example I-009, [1,3-dimethyl-6-oxo-5-[2-(trifluoromethyl)phenoxy]pyridazin-4-yl] ethyl carbonate], the “herbicidal effect SETVI” value in assay [16] is 100%.
As for `CCOC(=O)Oc1c(C)nn(C)c(=O)c1Oc1cccc(F)c1C1CC1` [Example I-058], the “herbicidal effect KCHSC” value in assay [17] is on record as 90%; in assay [5], 100%; in assay [18] it was 90%. The “herbicidal effect LOLRI” value in [1] turned out to be 90%; in [6], 100%; in [12], 90%. The “herbicidal effect STEME” value in assay [3], in assay [8] and in assay [14] was 90% throughout. The results for the “herbicidal effect ABUTH” value in assay [4] and in assay [11] were 100% and 90%, respectively. Moreover, the “herbicidal effect MATIN” value in [7] amounted to 100%. In addition, the “herbicidal effect VERPE” value in assay [9] is listed as 90%. Besides, the “herbicidal effect AMARE” value in assay [10] and in assay [15] was 90% throughout.
As to `CCOC(=O)Oc1c(C)nn(C)c(=O)c1Oc1c(F)cccc1C1CC1` [Example I-085], the entries for the “herbicidal effect LOLRI” value in assay [1], in assay [6] and in [12] were 100%, 100% and 90%, respectively. The “herbicidal effect STEME” value in [3] worked out at 90%; in assay [8], 100%; in [14], 100%. Besides, the “herbicidal effect ABUTH” value in assay [4] turned out to be 100%; in assay [11], 90%. Also, the “herbicidal effect KCHSC” value in assay [5] came to 100%. Besides, in assay [7], the “herbicidal effect MATIN” value is reported as 100%. In addition, the “herbicidal effect VERPE” value in [9] is reported as 100%; in assay [19] it was 90%. For the same compound, the “herbicidal effect AMARE” value was 100% in [10] and 90% in assay [15].
Turning to `Cc1nn(C)c(=O)c(Oc2cc(Cl)ccc2C2CC2)c1O` [Example I-071], the figures for the “herbicidal effect ABUTH” value in [20], in assay [4] and in assay [11] were 90%, 100% and 100%, respectively. Also, the “herbicidal effect LOLRI” value in assay [1] worked out at 100%. Also, the “herbicidal effect MATIN” value in assay [2] was 100%. Further, the “herbicidal effect SETVI” value in assay [16] worked out at 90%. The “herbicidal effect STEME” value in assay [3] is 90%; in [8], 100%; in assay [14], 90%. In [9], the “herbicidal effect VERPE” value is 90%. Further, the figures for the “herbicidal effect AMARE” value in [10] and in assay [15] were 100% and 90%, respectively.
In the case of `Cc1nn(C)c(=O)c(Oc2cc(F)ccc2C2CC2)c1O` [Example I-046], the “herbicidal effect ABUTH” value in assay [20] is listed as 90%; in assay [4] it was 100%; in assay [11], 100%. In addition, the “herbicidal effect LOLRI” value is 100% in [1], 100% in [6] and 90% in assay [22]. Also, the “herbicidal effect MATIN” value in assay [2] worked out at 90%; in [7], 100%; in [13] it was 90%. For the same compound, the “herbicidal effect STEME” value in assay [3] is on record as 100%; in assay [8] it was 100%; in [23] it was 100%; in assay [14], 90%. Further, the “herbicidal effect AMARE” value in [21] is listed as 90%; in assay [10], 100%; in assay [15] it was 90%. Besides, the “herbicidal effect KCHSC” value in assay [5] was 90%. Further, the figures for the “herbicidal effect VERPE” value in assay [9] and in [19] were 100% and 90%, respectively.

The record behind these values is patent US20240239755A1, “SUBSTITUTED PYRIDAZINONES, SALTS OR N-OXIDES THEREOF AND THEIR USE AS HERBICIDALLY ACTIVE SUBSTANCES” (Bayer Aktiengesellschaft, priority 2021, published 2024).
